This passage reports MIC results from article PMC10648927, “Examining the activity of cefepime-taniborbactam against Burkholderia cepacia complex and Burkholderia gladioli isolated from cystic fibrosis patients in the United States” (Antimicrobial Agents and Chemotherapy, 2023).

Converted amounts (≈) assume the structure as drawn. Some results are limits rather than exact numbers.

Holding throughout (set-up): agar dilution MIC, growth inhibition of clinical Burkholderia isolates
(In agar dilution, organisms are placed on agar that contains the substance at set levels.)

The subject of one assay is T1, B. ambifaria AU5203.
T1 construct: AU5203
In words: microbe, parasite or virus in culture. Particulars: Burkholderia ambifaria, AU5203. From the text: (§1) We evaluated the activity of cefepime-taniborbactam against a panel of 140 Bcc clinical isolates (i.e., species ambifaria, arboris, cenocepacia, cepacia, contaminans, diffusa, dolosa, multivorans, pseudomultivorans, pyrrocinia, seminalis, stabilis, ubonensis, and vietnamiensis) and 10 B. gladioli from the Burkholderia cepacia Research Laboratory and Repository (University of Michigan) ([22], [25], [31]) (Supplementary Material, Tables S1 and S2). K. pneumoniae ATCC 700603 carrying bla SHV-18 and K. pneumoniae ATCC BAA-1705 harboring bla KPC strains were used as controls for β-lactam and β-lactamase inhibitor integrity; all controls tested within the anticipated quality control ranges (Table S3). Minimum inhibitory concentration (MIC) results were interpreted using Clinical Laboratory Standards Institute (CLSI) breakpoints, where available ([32]). […] An alternative cefepime-taniborbactam provisional susceptible breakpoint of ≤16 µg/mL is supported by in vivo efficacy data from neutropenic murine infection models (thigh, complicated urinary tract, and lung) ([15] [–] [17]) and data from safety and pharmacokinetics studies in human volunteers ([33], [34]). The cefepime-taniborbactam antimicrobial activity was compared to cefepime, meropenem, meropenem-vaborbactam, and levofloxacin, to data published for first-line agents (e.g., ceftazidime and trimethoprim-sulfamethoxazole) and to those recommended by the CLSI for clinical testing (e.g., minocycline) against the Bcc and B. gladioli panel ([22], [32]). Of note, the MICs of all these agents were determined by the agar dilution method, which alongside broth microdilution, are recommended by the CLSI to assess the antimicrobial susceptibility of Bcc isolates ([32]).

The test system of the next assay is T2, B. multivorans AU10897.
T2 construct: AU10897
In words: microbe, parasite or virus in culture. The note with it: Burkholderia multivorans, AU10897.
Excerpt: as §1

For another assay, the system named is T3, B. multivorans AU30050.
T3 construct: AU30050
In words: microbe, parasite or virus in culture. Particulars: Burkholderia multivorans, AU30050.
Excerpt: as §1

The subject of a further assay is T4, B. gladioli AU27927.
T4 construct: AU27927
Nature of the assay: organism not typed.
Excerpt: as §1

The test system of the next assay is T5, B. multivorans AU25543.
T5 construct: AU25543
Nature of the assay: microbe, parasite or virus in culture. Particulars: Burkholderia multivorans, AU25543.
Excerpt: as §1

The next assay deals with T6, B. multivorans AU15954.
T6 construct: AU15954
In words: microbe, parasite or virus in culture. The note with it: Burkholderia multivorans, AU15954.
Excerpt: as §1

For another assay, the system named is T7, B. cenocepacia AU6550.
T7 construct: AU6550
In words: microbe, parasite or virus in culture. The note with it: Burkholderia cenocepacia, AU6550.
Excerpt: as §1

In assay [1] the test system is T8, Burkholderia cepacia complex Bcc Indeterminate AU9162.
T8 construct: AU9162
In words: microbe, parasite or virus in culture. Particulars: Burkholderia cepacia.
Excerpt: as §1

Another assay concerns T9, B. vietnamiensis AU5003.
T9 construct: AU5003
Nature of the assay: microbe, parasite or virus in culture. Particulars: Burkholderia vietnamiensis, AU5003.
Excerpt: as §1

For a further assay, the system named is T10, B. cepacia AU15677.
T10 construct: AU15677
In words: microbe, parasite or virus in culture. The note with it: Burkholderia cepacia, AU15677.
Excerpt: as §1

The test system of the next assay is T11, B. cenocepacia AU29265.
T11 construct: AU29265
In words: microbe, parasite or virus in culture. The note with it: Burkholderia cenocepacia, AU29265.
Excerpt: as §1

A further assay has as its system T12, B. cenocepacia AU21083.
T12 construct: AU21083
Nature of the assay: microbe, parasite or virus in culture. Particulars: Burkholderia cenocepacia, AU21083.
Excerpt: as §1

The subject of a further assay is T13, B. multivorans AU30760.
T13 construct: AU30760
In words: microbe, parasite or virus in culture. The note with it: Burkholderia multivorans, AU30760.
Excerpt: as §1

For a further assay, the system named is T14, B. cepacia AU27816.
T14 construct: AU27816
Nature of the assay: microbe, parasite or virus in culture. Particulars: Burkholderia cepacia, AU27816.
Excerpt: as §1

The next assay concerns T15, B. multivorans AU16734.
T15 construct: AU16734
In words: microbe, parasite or virus in culture. Particulars: Burkholderia multivorans, AU16734.
Excerpt: as §1

The test system of another assay is T16, B. cepacia AU29493.
T16 construct: AU29493
Nature of the assay: microbe, parasite or virus in culture. The note with it: Burkholderia cepacia, AU29493.
Excerpt: as §1

The subject of another assay is T17, B. multivorans AU12481.
T17 construct: AU12481
Nature of the assay: microbe, parasite or virus in culture. The note with it: Burkholderia multivorans, AU12481.
Excerpt: as §1

Another assay concerns T18, B. multivorans AU17135.
T18 construct: AU17135
In words: microbe, parasite or virus in culture. Particulars: Burkholderia multivorans, AU17135.
Excerpt: as §1

The test system of assay [2] is T19, Burkholderia cepacia complex Bcc Indeterminate AU14962.
T19 construct: AU14962
Nature of the assay: microbe, parasite or virus in culture. Particulars: Burkholderia cepacia.
Excerpt: as §1

For the next assay, the system named is T20, B. gladioli AU30473.
T20 construct: AU30473
In words: organism not typed.
Excerpt: as §1

The next assay has as its system T21, B. contaminans AU20979.
T21 construct: AU20979
Nature of the assay: organism not typed.
Excerpt: as §1

For a further assay, the system named is T22, B. gladioli AU16341.
T22 construct: AU16341
Nature of the assay: organism not typed.
Excerpt: as §1

On to `CO/N=C(\C(=O)N[C@@H]1C(=O)N2C(C(=O)[O-])=C(C[N+]3(C)CCCC3)CS[C@H]12)c1csc(N)n1` [cefepime], for which the MIC in the assay on B. ambifaria AU5203 worked out at 16 µg/mL (≈ 33.3 µM); in the assay on B. multivorans AU10897, 32 µg/mL (≈ 66.6 µM); against B. multivorans AU30050 it was 2 µg/mL (≈ 4.16 µM); against B. gladioli AU27927, 8 µg/mL (≈ 16.6 µM); against B. multivorans AU25543, 4 µg/mL (≈ 8.32 µM); in the assay on B. multivorans AU15954, 8 µg/mL (≈ 16.6 µM). The MIC against B. cenocepacia AU6550 is 32 µg/mL (≈ 66.6 µM); in assay [1] it was 32 µg/mL (≈ 66.6 µM); in the assay on B. vietnamiensis AU5003, more than 32 µg/mL; against B. cepacia AU15677, 32 µg/mL (≈ 66.6 µM); in the assay with B. cenocepacia AU29265 it was 16 µg/mL (≈ 33.3 µM); against B. cenocepacia AU21083, 16 µg/mL (≈ 33.3 µM). Besides, the MIC in the assay with B. multivorans AU30760 was 8 µg/mL (≈ 16.6 µM); in the assay with B. cepacia AU27816, 16 µg/mL (≈ 33.3 µM); in the assay with B. multivorans AU16734, 16 µg/mL (≈ 33.3 µM); in the assay on B. cepacia AU29493, more than 32 µg/mL; against B. multivorans AU12481, 2 µg/mL (≈ 4.16 µM); in the assay on B. multivorans AU17135, 4 µg/mL (≈ 8.32 µM). The MIC in assay [2] was more than 32 µg/mL; against B. gladioli AU30473, 32 µg/mL (≈ 66.6 µM); against B. contaminans AU20979, more than 32 µg/mL; against B. gladioli AU16341 it was more than 32 µg/mL.
As for `C[C@H]1COc2c(N3CCN(C)CC3)c(F)cc3c(=O)c(C(=O)O)cn1c23` [levofloxacin], the MIC in the assay with B. ambifaria AU5203 is more than 32 µg/mL; in the assay with B. multivorans AU10897 it was 16 µg/mL (≈ 44.3 µM); with B. multivorans AU30050, 1 µg/mL (≈ 2.77 µM); with B. gladioli AU27927, 1 µg/mL (≈ 2.77 µM); in the assay with B. multivorans AU25543 it was 2 µg/mL (≈ 5.53 µM); with B. multivorans AU15954, 2 µg/mL (≈ 5.53 µM). The MIC came out at 8 µg/mL (≈ 22.1 µM) against B. cenocepacia AU6550; 1 µg/mL (≈ 2.77 µM) in assay [1]; 8 µg/mL (≈ 22.1 µM) against B. vietnamiensis AU5003; 4 µg/mL (≈ 11.1 µM) in the assay with B. cepacia AU15677; 2 µg/mL (≈ 5.53 µM) against B. cenocepacia AU29265; 2 µg/mL (≈ 5.53 µM) in the assay with B. cenocepacia AU21083. For the same molecule, the MIC with B. multivorans AU30760 came out at 2 µg/mL (≈ 5.53 µM); in the assay on B. cepacia AU27816, 4 µg/mL (≈ 11.1 µM); in the assay with B. multivorans AU16734, 8 µg/mL (≈ 22.1 µM); against B. cepacia AU29493 it was 8 µg/mL (≈ 22.1 µM); against B. multivorans AU12481 it was 4 µg/mL (≈ 11.1 µM); against B. multivorans AU17135, 2 µg/mL (≈ 5.53 µM). In addition, the MIC in assay [2] turned out to be 2 µg/mL (≈ 5.53 µM); with B. gladioli AU30473, 2 µg/mL (≈ 5.53 µM); against B. contaminans AU20979 it was 32 µg/mL (≈ 88.6 µM); against B. gladioli AU16341, 4 µg/mL (≈ 11.1 µM).
With `C[C@@H](O)[C@H]1C(=O)N2C(C(=O)O)=C(S[C@@H]3CN[C@H](C(=O)N(C)C)C3)[C@H](C)[C@H]12` [meropenem], the MIC with B. ambifaria AU5203 came out at 4 µg/mL (≈ 10.4 µM); against B. multivorans AU10897, 8 µg/mL (≈ 20.9 µM); in the assay with B. multivorans AU30050, 2 µg/mL (≈ 5.22 µM); in the assay on B. gladioli AU27927, 1 µg/mL (≈ 2.61 µM); in the assay on B. multivorans AU25543 it was 1 µg/mL (≈ 2.61 µM); in the assay on B. multivorans AU15954 it was 4 µg/mL (≈ 10.4 µM). The MIC in the assay with B. cenocepacia AU6550 came out at 8 µg/mL (≈ 20.9 µM); in [1], 4 µg/mL (≈ 10.4 µM); with B. vietnamiensis AU5003 it was 4 µg/mL (≈ 10.4 µM); with B. cepacia AU15677, 4 µg/mL (≈ 10.4 µM); against B. cenocepacia AU29265, 2 µg/mL (≈ 5.22 µM); against B. cenocepacia AU21083, 4 µg/mL (≈ 10.4 µM). Further, the MIC in the assay with B. multivorans AU30760 stood at 2 µg/mL (≈ 5.22 µM); against B. cepacia AU27816, 4 µg/mL (≈ 10.4 µM); with B. multivorans AU16734, 16 µg/mL (≈ 41.7 µM); against B. cepacia AU29493, 8 µg/mL (≈ 20.9 µM); with B. multivorans AU12481, 2 µg/mL (≈ 5.22 µM); in the assay with B. multivorans AU17135 it was 4 µg/mL (≈ 10.4 µM). For the same molecule, the MIC in assay [2] was found to be 8 µg/mL (≈ 20.9 µM); in the assay on B. gladioli AU30473, 4 µg/mL (≈ 10.4 µM); against B. contaminans AU20979 it was 8 µg/mL (≈ 20.9 µM); with B. gladioli AU16341 it was 8 µg/mL (≈ 20.9 µM).
